Data on 13 compounds can be found in patent US10730889B2, “Amido spirocyclic amide and sulfonamide derivatives” (Forma TM, LLC, priority 2012, dated 2020).

The structures appear in SMILES notation.

The first assay concerns A2780 cells. The experiment in a line: In-vitro cell proliferation assay (SRB, 72 hours). In kind it is cell-based. Particulars: A2780 cells, 72 hours, SRB; read-out: Cell Proliferation (IC50).
Take `CC1(C)CC1C(=O)N1CCC2(CC1)CC2CNC(=O)c1cc2cnccc2[nH]1` (stereo not shown) [Example 348, N-[[6-(2,2-dimethylcyclopropanecarbonyl)-6-azaspiro[2.5]octan-2-yl]methyl]-1H-pyrrolo[3,2-c]pyridine-2-carboxamide]: the IC50 is 42.6 nM.

The same assay, now with this note: Homo sapiens, A2780, 72 h, A2780 cells, 72 hours, SRB; read-out: Cell Proliferation (IC50).
Consider `CS(=O)(=O)N1CCCC1C(=O)N1CCC2(CC1)CC2CNC(=O)c1cc2ccncc2o1` (stereo not shown) [Example 76, N-[[6-(1-methylsulfonylpyrrolidine-2-carbonyl)-6-azaspiro[2.5]octan-2-yl]methyl]furo[2,3-c]pyridine-2-carboxamide], for which the IC50 turned out to be 228 nM.

With `CS(=O)(=O)c1ccccc1C(=O)N1CCC2(CC1)CC2CNC(=O)c1cc2ccncc2o1` (stereo not shown) [Example 69, N-[[6-(2-methylsulfonylbenzoyl)-6-azaspiro[2.5]octan-2-yl]methyl]furo[2,3-c]pyridine-2-carboxamide], the IC50 was determined as 194 nM.

`CN1CCC(C)(CC(=O)N2CCC3(CC2)CC3CNC(=O)c2cc3ccncc3o2)CC1` (stereo not shown) [Example 275, N-([6-[2-(1,4-dimethylpiperidin-4-yl)acetyl]-6-azaspiro[2.5]octan-1-yl]methyl)furo[2,3-c]pyridine-2-carboxamide]: the IC50 amounted to 17.7 nM.

As to `Cc1n[nH]c(C)c1C(=O)N1CCC2(CC1)CC2CNC(=O)c1cc2ccncc2o1` (stereo not shown) [Example 329, N-[[6-(3,5-dimethyl-1H-pyrazole-4-carbonyl)-6-azaspiro[2.5]octan-2-yl]methyl]furo[2,3-c]pyridine-2-carboxamide], the IC50 is 55.1 nM.

As to `O=C(NCC1CC12CCN(C(=O)c1c[nH]cn1)CC2)c1cc2ccncc2o1` (stereo not shown) [Example 101, N-[[6-(1H-imidazole-4-carbonyl)-6-azaspiro[2.5]octan-2-yl]methyl]furo[2,3-c]pyridine-2-carboxamide], the IC50 was 2000 nM.

For the compound `O=C(NCC1CC12CCN(C(=O)c1cnoc1)CC2)c1cc2ccncc2o1` (stereo not shown) [Example 337, N-[[6-(isoxazole-4-carbonyl)-6-azaspiro[2.5]octan-2-yl]methyl]furo[2,3-c]pyridine-2-carboxamide], the IC50 came out at 23.1 nM.

Consider `O=C(NCC1CC12CCN(C(=O)c1ccc(-n3cncn3)cc1)CC2)c1cc2ccncc2o1` (stereo not shown) [Example 179, N-[[6-[4-(1,2,4-triazol-1-yl)benzoyl]-6-azaspiro[2.5]octan-2-yl]methyl]furo[2,3-c]pyridine-2-carboxamide], for which the IC50 was found to be 25.4 nM.

Consider `CC(C)c1cc(C(=O)N2CCC3(CC2)CC3CNC(=O)c2cc3ccncc3o2)n[nH]1` (stereo not shown) [Example 323, N-[[6-(5-isopropyl-1H-pyrazole-3-carbonyl)-6-azaspiro[2.5]octan-2-yl]methyl]furo[2,3-c]pyridine-2-carboxamide], for which the IC50 is 2000 nM.

For `O=C(NCC1CC12CCN(C(=O)CCC(F)(F)F)CC2)c1cc2ccncc2o1` (stereo not shown) [Example 27, N-[[6-(4,4,4-trifluorobutanoyl)-6-azaspiro[2.5]octan-2-yl]methyl]furo[2,3-c]pyridine-2-carboxamide], the IC50 stood at 842 nM.

As to `O=C(NCC1CC12CCN(C(=O)c1cc(C3CC3)n[nH]1)CC2)N1Cc2ccncc2C1` (stereo not shown) [Example 353, N-[[6-(3-cyclopropyl-1H-pyrazole-5-carbonyl)-6-azaspiro[2.5]octan-2-yl]methyl]-1,3-dihydropyrrolo[3,4-c]pyridine-2-carboxamide], the IC50 amounted to 7.55 nM.

Take `O=C(NCC1CC12CCN(C(=O)c1cc(C(F)(F)F)ccn1)CC2)c1cc2ccncc2o1` (stereo not shown) [Example 256, N-[[6-[4-(trifluoromethyl]pyridine-2-carbonyl]6-azaspiro[2.5]octan-2-yl]methyl]furo[2,3-c]pyridine-2-carboxamide]: the IC50 was 596 nM.

The same assay, now with this note: Homo sapiens, A2780, 72 h, read-out: Cell Proliferation (IC50).
As for `O=C(NCC1CC12CCN(C(=O)C1CC1(F)F)CC2)c1cc2ccncc2o1` (stereo not shown) [Example 58, N-[[6-(2,2-difluorocyclopropanecarbonyl)-6-azaspiro[2.5]octan-2-yl]methyl]furo(2,3-c]pyridine-2-carboxamide], the IC50 came out at 2000 nM.
